Assay results from patent US20120029187A1, “HALOALKYLSULFONANILIDE DERIVATIVE” (Nissan Chemical Industries, Ltd., priority 2009, published 2012).

Columns and labels:
Format in all cases: in vivo
[1] = system: wild oat; assay: Test Example 4: herbicidal effect in foliage treatment; settings: dose 6.3 g/a, three weeks after application
In short: (§1)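 Post-emergence foliar spray of water-diluted emulsifiable concentrate at predetermined doses (g per are), applied to plants 14 days after sowing in sterile diluvial soil (greenhouse, 25 to 30° C). Visual scale rating of effect taken 3 weeks later.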

[2] = system: common ragweed; assay: as above; settings: dose 6.3 g/a, three weeks after application
In short: as §1

[3] = system: beadstraw; assay: as above; settings: dose 6.3 g/a, three weeks after application
In short: as §1

[4] = system: barnyardgrass; assay: as above; settings: dose 6.3 g/a, three weeks after application
In short: as §1

[5] = system: giant foxtail; assay: as above; settings: dose 6.3 g/a, three weeks after application
In short: as §1

[6] = system: velvetleaf; assay: as above; settings: dose 6.3 g/a, three weeks after application
In short: as §1

[7] = system: Italian ryegrass; assay: as above; settings: dose 6.3 g/a, three weeks after application
In short: as §1

[8] = system: posumbu knotweed; assay: as above; settings: dose 6.3 g/a, three weeks after application
In short: as §1

[9] = system: water foxtail; assay: as above; settings: dose 6.3 g/a, three weeks after application
In short: as §1

[10] = system: large crabgrass; assay: as above; settings: dose 6.3 g/a, three weeks after application
In short: as §1

[11] = system: common chickweed; assay: as above; settings: dose 6.3 g/a, three weeks after application
In short: as §1

[12] = system: common lambsquater; assay: as above; settings: dose 6.3 g/a, three weeks after application
In short: as §1

[13] = system: redroot pigweed; assay: as above; settings: dose 6.3 g/a, three weeks after application
In short: as §1

[14] = system: barnyardgrass; assay: Comparative Example 1: herbicidal effects in preemergence treatment on barnyardgrass under submerged conditions; settings: applied to water surface on the day of seeding, three weeks after application
Description: Comparative Example 1 Test on the Herbicidal Effects in Preemergence Treatment on Barnyardgrass Under Submerged Conditions Alluvial soil was put in 1/30000-are styrol cups and admixed with water so that it was submerged at a depth of 4 cm. In each cup, seeds of barnyardgrass were sown, and on the same day as the seeding, emulsifiable concentrates containing compounds of the present invention formulated in accordance with Formulation Example 2 were applied to the water surfaces at predetermined doses after diluted with water. The cups were placed in a greenhouse at 25 to 30° C. to grow the plants. Three weeks after the application, the herbicidal effects against barnyardgrass were determined on the following evaluation scale. The symbol A in the table means barnyardgrass.

[15] = system: wild oat; assay: Test Example 3: herbicidal effects in soil treatment; settings: dose 6.3 g/a
In short: (§2)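 Seeds were sown in sterilized diluvial soil and covered with about 1.5 cm of soil. Compounds, formulated as emulsifiable concentrates and diluted with water, were sprayed evenly over the soil surface at set doses in g/a. Herbicidal effect was scored on a rating scale three weeks later.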

[16] = system: common ragweed; assay: as above; settings: dose 6.3 g/a
In short: as §2

[17] = system: barnyardgrass; assay: as above; settings: dose 6.3 g/a
In short: as §2

[18] = system: giant foxtail; assay: as above; settings: dose 6.3 g/a
In short: as §2

[19] = system: velvetleaf; assay: as above; settings: dose 6.3 g/a
In short: as §2

[20] = system: Italian ryegrass; assay: as above; settings: dose 6.3 g/a
In short: as §2

[21] = system: posumbu knotweed; assay: as above; settings: dose 6.3 g/a
In short: as §2

[22] = system: water foxtail; assay: as above; settings: dose 6.3 g/a
In short: as §2

[23] = system: large crabgrass; assay: as above; settings: dose 6.3 g/a
In short: as §2

[24] = system: common chickweed; assay: as above; settings: dose 6.3 g/a
In short: as §2

[25] = system: common lambsquater; assay: as above; settings: dose 6.3 g/a
In short: as §2

[26] = system: barnyardgrass; assay: Test Example 1: herbicidal effects in preemergence treatment under submerged conditions; settings: dose 2.52 g/a
In short: (§3)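 Weed seeds and 2.5-leaf rice seedlings shared each flooded cup of alluvial soil. Dosing, expressed as g per are, was by pouring water-diluted emulsifiable concentrate onto the surface on sowing day. Mortality was graded 0 to 5 after three weeks' growth.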

[27] = system: bulrush; assay: as above; settings: dose 2.52 g/a
In short: as §3

[28] = system: ducksalad; assay: as above; settings: dose 2.52 g/a
In short: as §3

SMILES: CC(C)COC(=O)N(c1ccccc1CN1COCCC1=O)S(=O)(=O)C(F)(F)F [II-3]
- F: wild oat, herbicidal effect [1]: 0 (mortality of less than 5% (almost ineffective))
- J: common ragweed, herbicidal effect [2]: 2 (mortality of at least 20% and less than 40%)
- O: beadstraw, herbicidal effect [3]: 3 (mortality of at least 40% and less than 70%)
- A: barnyardgrass, herbicidal effect [4]: 5 (mortality of 90% or above (nearly complete death))
- E: giant foxtail, herbicidal effect [5]: 5 (mortality of 90% or above (nearly complete death))
- I: velvetleaf, herbicidal effect [6]: 5 (mortality of 90% or above (nearly complete death))
- H: Italian ryegrass, herbicidal effect [7]: 3 (mortality of at least 40% and less than 70%)
- M: posumbu knotweed, herbicidal effect [8]: 0 (mortality of less than 5% (almost ineffective))
- G: water foxtail, herbicidal effect [9]: 5 (mortality of 90% or above (nearly complete death))
- D: large crabgrass, herbicidal effect [10]: 5 (mortality of 90% or above (nearly complete death))
- N: common chickweed, herbicidal effect [11]: 3 (mortality of at least 40% and less than 70%)
- L: common lambsquater, herbicidal effect [12]: 4 (mortality of at least 70% and less than 90%)
- K: redroot pigweed, herbicidal effect [13]: 0 (mortality of less than 5% (almost ineffective))
- herbicidal effect, A (barnyardgrass) ([14]; dose 0.16 g/a): 5 (mortality of 90% or above (nearly complete death))
- herbicidal effect, A (barnyardgrass) ([14]; dose 0.64 g/a): 5 (mortality of 90% or above (nearly complete death))
- herbicidal effect, A (barnyardgrass) ([14]; dose 2.52 g/a): 5 (mortality of 90% or above (nearly complete death))
- F: wild oat, herbicidal effect (evaluation scale 0-5) [15]: 0 (mortality of less than 5% (almost ineffective))
- J: common ragweed, herbicidal effect (evaluation scale 0-5) [16]: 3 (mortality of at least 40% and less than 70%)
- A: barnyardgrass, herbicidal effect (evaluation scale 0-5) [17]: 5 (mortality of 90% or above (nearly complete death))
- E: giant foxtail, herbicidal effect (evaluation scale 0-5) [18]: 3 (mortality of at least 40% and less than 70%)
- I: velvetleaf, herbicidal effect (evaluation scale 0-5) [19]: 4 (mortality of at least 70% and less than 90%)
- H: Italian ryegrass, herbicidal effect (evaluation scale 0-5) [20]: 4 (mortality of at least 70% and less than 90%)
- M: posumbu knotweed, herbicidal effect (evaluation scale 0-5) [21]: 1 (mortality of at least 5% and less than 20%)
- G: water foxtail, herbicidal effect (evaluation scale 0-5) [22]: 5 (mortality of 90% or above (nearly complete death))
- D: large crabgrass, herbicidal effect (evaluation scale 0-5) [23]: 5 (mortality of 90% or above (nearly complete death))
- N: common chickweed, herbicidal effect (evaluation scale 0-5) [24]: 3 (mortality of at least 40% and less than 70%)
- L: common lambsquater, herbicidal effect (evaluation scale 0-5) [25]: 1 (mortality of at least 5% and less than 20%)
- A: barnyardgrass, herbicidal effect (evaluation scale 0-5) [26]: 5 (mortality of 90% or above (nearly complete death))
- B: bulrush, herbicidal effect (evaluation scale 0-5) [27]: 5 (mortality of 90% or above (nearly complete death))
- C: ducksalad, herbicidal effect (evaluation scale 0-5) [28]: 5 (mortality of 90% or above (nearly complete death))
